Experimental data reported in PMC2854587 (Nature, 2008).

Biological target: T1, SrfTEII (surfactin type II thioesterase; SrfD, external thioesterase) (Bacillus subtilis, UniProt Q08788)
T1 sequence (Q08788 1-241): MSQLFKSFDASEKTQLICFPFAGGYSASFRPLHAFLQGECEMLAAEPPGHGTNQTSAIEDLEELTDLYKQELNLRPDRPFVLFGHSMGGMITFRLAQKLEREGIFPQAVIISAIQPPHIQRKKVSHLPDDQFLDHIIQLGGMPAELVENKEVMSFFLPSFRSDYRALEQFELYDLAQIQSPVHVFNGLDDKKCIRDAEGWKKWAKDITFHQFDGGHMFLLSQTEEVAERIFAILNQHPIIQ
Assay: […]-HSQC NMR titration
Assay type: binding
Conditions: 296 K; 15N-enriched SrfTEII

## CCCCCCCCCCCCCC(=O)SCCNC(=O)CCNC(=O)[C@H](O)C(C)(C)COP(=O)(O)OP(=O)(O)OC[C@H]1O[C@@H](n2cnc3c(N)ncnc32)[C@H](O)[C@@H]1OP(=O)(O)O [myristoyl-CoA]
  15N-HSQC NMR titration (chemical shift perturbation): Interestingly, myristoyl-CoA also binds to SrfTEII
